CC1(C)C[C@@H]1C(N)=O
Conditions | solubility (mole fraction)
in chloroform, 286.26 K | 0.0357
in chloroform, 293.65 K | 0.0395
in chloroform, 296.64 K | 0.0429
in chloroform, 300.25 K | 0.0484
in chloroform, 303.47 K | 0.0529
in chloroform, 308.04 K | 0.0596
in chloroform, 310.96 K | 0.0665
in chloroform, 314.18 K | 0.0699
in chloroform, 317.45 K | 0.0789
in chloroform, 321.27 K | 0.0902
in dichloromethane, 288.72 K | 0.0152
in dichloromethane, 292.45 K | 0.0177
in dichloromethane, 296.11 K | 0.0205
in dichloromethane, 298.74 K | 0.0233
in dichloromethane, 300.83 K | 0.0248
in dichloromethane, 302.2 K | 0.0268
in dichloromethane, 304.6 K | 0.0301
in dichloromethane, 306.27 K | 0.0321
in dichloromethane, 309.29 K | 0.0367
in ethanol, 290.04 K | 0.089
in ethanol, 293.28 K | 0.0945
in ethanol, 296.81 K | 0.101
in ethanol, 299.25 K | 0.107
in ethanol, 302.71 K | 0.116
in ethanol, 306.04 K | 0.123
in ethanol, 309.67 K | 0.134
in ethanol, 313.53 K | 0.148
in ethanol, 318.09 K | 0.163
in ethyl acetate, 288.96 K | 0.0169
in ethyl acetate, 290 K | 0.0205
in ethyl acetate, 294.53 K | 0.0279
in ethyl acetate, 301.16 K | 0.0357
in ethyl acetate, 305.88 K | 0.0409
in ethyl acetate, 311 K | 0.0483
in ethyl acetate, 316.3 K | 0.0557
in ethyl acetate, 323.65 K | 0.0787
in ethyl acetate, 328.41 K | 0.0912
in toluene, 288.7 K | 0.00221
in toluene, 302.9 K | 0.004
in toluene, 311.23 K | 0.00599
in toluene, 318.11 K | 0.00858
in toluene, 324.07 K | 0.011
in toluene, 328.47 K | 0.0137
in toluene, 332.43 K | 0.016
in toluene, 338.07 K | 0.0219
in toluene, 342.25 K | 0.0259
in toluene, 348.06 K | 0.035
in water, 294.8 K | 0.00374
in water, 308.15 K | 0.00499
in water, 314.67 K | 0.00583
in water, 327.39 K | 0.00716
in water, 331.7 K | 0.00917
in water, 336.08 K | 0.0115
in water, 340.86 K | 0.0146
in water, 345.84 K | 0.0177
in water, 353.93 K | 0.026

— BigSolDB 2.1
